Measurements from PubChem BioAssay AID256 (DTP/NCI, 2004).
Values joined by “and” are separate entries in the source; they are usually repeats but may differ in a detail not shown here. Identical values can stand only once. Toxic doses and inconclusive results are not listed. Rule for the calls: active = survival T/C of 150% or more; inactive = T/C below 125% in these data.

Tested on: CD2F1 mice, L1210 leukemia ip, survival T/C
Experiment: NCI In Vivo Anticancer Drug Screen. Data for tumor model L1210 Leukemia (intraperitoneal) in CD2F1 (CDF1) mice
Conditions: higher = longer survival
In short: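 In this screen, transplantable tumors were grown in mice given either the compound or its vehicle. Results were expressed as the treated measurement relative to the control measurement.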

[1] = endpoint: mean survival time, dose: 12.5 mg/kg/injection, schedule: Q04DX003 (ip), vehicle: saline with Tween-80
[2] = endpoint: mean survival time, dose: 25.0 mg/kg/injection, schedule: Q04DX003 (ip), vehicle: saline with Tween-80
[3] = endpoint: mean survival time, dose: 100.0 mg/kg/injection, schedule: Q01DX009 (ip), vehicle: saline with Tween-80
[4] = endpoint: mean survival time, dose: 200.0 mg/kg/injection, schedule: Q01DX009 (ip), vehicle: saline with Tween-80
[5] = endpoint: mean survival time, dose: 100.0 mg/kg/injection, schedule: Q01DX009 (ip), vehicle: saline
[6] = endpoint: mean survival time, dose: 200.0 mg/kg/injection, schedule: Q01DX009 (ip), vehicle: saline
[7] = endpoint: mean survival time, dose: 100.0 mg/kg/injection, schedule: Q01DX009 (ip), vehicle: other
[8] = endpoint: mean survival time, dose: 200.0 mg/kg/injection, schedule: Q01DX009 (ip), vehicle: other
[9] = endpoint: mean survival time, dose: 100.0 mg/kg/injection, schedule: Q01DX001 (ip), vehicle: saline
[10] = endpoint: mean survival time, dose: 200.0 mg/kg/injection, schedule: Q01DX001 (ip), vehicle: saline
[11] = endpoint: mean survival time, dose: 400.0 mg/kg/injection, schedule: Q01DX001 (ip), vehicle: saline

Measured: T/C

NC(=S)N/N=C/c1c(O)ccc2ccccc12
inactive: [1] 98 % of control | [2] 95 % of control | endpoint: mean survival time, dose: 50.0 mg/kg/injection, schedule: Q04DX003 (ip), vehicle: saline with Tween-80 95 % of control

O=c1[nH]cc(C(O)Cc2ccccc2)c(=O)[nH]1 (configuration not stated)
inactive: [3] 97 % of control | endpoint: mean survival time, dose: 100.0 mg/kg/injection, schedule: Q04DX003 (ip), vehicle: saline with Tween-80 104 % of control | [4] 100 % of control | endpoint: mean survival time, dose: 200.0 mg/kg/injection, schedule: Q04DX003 (ip), vehicle: saline with Tween-80 94 % of control | endpoint: mean survival time, dose: 400.0 mg/kg/injection, schedule: Q01DX009 (ip), vehicle: saline with Tween-80 97 % of control | endpoint: mean survival time, dose: 400.0 mg/kg/injection, schedule: Q04DX003 (ip), vehicle: saline with Tween-80 98 % of control

CC(O)COCCOCCO (configuration not stated)
inactive: [5] 100 % of control | [6] 103 % of control | endpoint: mean survival time, dose: 400.0 mg/kg/injection, schedule: Q01DX009 (ip), vehicle: saline 100 % of control

CC(=O)OC1=C(C)C(c2ccc(C)cc2)OC1=O (configuration not stated)
inactive: endpoint: mean survival time, dose: 12.5 mg/kg/injection, schedule: Q01DX009 (ip), vehicle: other 101 % of control | endpoint: mean survival time, dose: 25.0 mg/kg/injection, schedule: Q01DX009 (ip), vehicle: other 106 % of control | endpoint: mean survival time, dose: 50.0 mg/kg/injection, schedule: Q01DX009 (ip), vehicle: other 110 % of control | [7] 104 % of control | [8] 104 % of control

Clc1ccc(C[P+](c2ccccc2)(c2ccccc2)c2ccccc2)c(Cl)c1
inactive: endpoint: mean survival time, dose: 5.0 mg/kg/injection, schedule: Q01DX009 (ip), vehicle: saline sonified 103 % of control | endpoint: mean survival time, dose: 5.0 mg/kg/injection, schedule: Q04DX003 (ip), vehicle: saline with Tween-80 92 % of control | endpoint: mean survival time, dose: 10.0 mg/kg/injection, schedule: Q04DX003 (ip), vehicle: saline with Tween-80 96 % of control | [1] 100 % of control | endpoint: mean survival time, dose: 20.0 mg/kg/injection, schedule: Q04DX003 (ip), vehicle: saline with Tween-80 108 % of control | [2] 93 % of control

COC(=O)Nc1cn2cc(C(=O)c3cccs3)ccc2n1
inactive: endpoint: median survival time, dose: 6.25 mg/kg/injection, schedule: Q01DX009 (ip), vehicle: Klucel (hydroxypropylcellulose) (HPC) 104 % of control | endpoint: median survival time, dose: 12.5 mg/kg/injection, schedule: Q01DX009 (ip), vehicle: Klucel (hydroxypropylcellulose) (HPC) 112 % of control | endpoint: median survival time, dose: 25.0 mg/kg/injection, schedule: Q01DX009 (ip), vehicle: Klucel (hydroxypropylcellulose) (HPC) 119 % of control | endpoint: median survival time, dose: 50.0 mg/kg/injection, schedule: Q01DX009 (ip), vehicle: Klucel (hydroxypropylcellulose) (HPC) 124 % of control

CNc1ccccc1CO
inactive: [7] 107 % of control | [8] 97 % of control | endpoint: mean survival time, dose: 400.0 mg/kg/injection, schedule: Q01DX009 (ip), vehicle: other 103 % of control

Nc1ccc(C(=O)Nc2cccc(S(=O)(=O)F)c2)cc1
inactive: endpoint: mean survival time, dose: 100.0 mg/kg/injection, schedule: Q01DX001 (ip), vehicle: saline with Tween-80 101 % of control | endpoint: mean survival time, dose: 200.0 mg/kg/injection, schedule: Q01DX001 (ip), vehicle: saline with Tween-80 98 % of control | endpoint: mean survival time, dose: 400.0 mg/kg/injection, schedule: Q01DX001 (ip), vehicle: saline with Tween-80 93 % of control

CC1CCC2(C(=O)O)CCC3(C)C(=CCC4C5(C)CCC(O)C(C)(C)C5CCC43C)C2C1C (configuration not stated)
inactive: [9] 98 % of control | [10] 98 % of control | [11] 96 % of control

CCC(O)C(C)[N+](=O)[O-] (configuration not stated)
inactive: endpoint: mean survival time, dose: 50.0 mg/kg/injection, schedule: Q01DX009 (ip), vehicle: saline with Tween-80 95 % of control | [3] 102 % of control | [4] 95 % of control

COC(=O)C(CS)NC(=O)CCNC(=O)OCc1ccccc1 (configuration not stated)
inactive: endpoint: mean survival time, dose: 12.5 mg/kg/injection, schedule: Q01DX009 (ip), vehicle: sodium bicarbonate 100 % of control | endpoint: mean survival time, dose: 25.0 mg/kg/injection, schedule: Q01DX009 (ip), vehicle: sodium bicarbonate 96 % of control | endpoint: mean survival time, dose: 50.0 mg/kg/injection, schedule: Q01DX009 (ip), vehicle: sodium bicarbonate 91 % of control | endpoint: mean survival time, dose: 100.0 mg/kg/injection, schedule: Q01DX009 (ip), vehicle: sodium bicarbonate 93 % of control | endpoint: mean survival time, dose: 200.0 mg/kg/injection, schedule: Q01DX009 (ip), vehicle: sodium bicarbonate 88 % of control

Nc1ccn(C2OC(CO)C(O)C2O)c(=O)n1 (configuration not stated)
inactive: endpoint: mean survival time, dose: 8.0 mg/kg/injection, schedule: Q X X004 (other), vehicle: saline 86 % of control | endpoint: mean survival time, dose: 16.0 mg/kg/injection, schedule: Q01DX008 (ip), vehicle: saline 95 % of control | endpoint: mean survival time, dose: 16.0 mg/kg/injection, schedule: Q03HX024 (oral), vehicle: saline 100 % of control | endpoint: mean survival time, dose: 30.0 mg/kg/injection, schedule: Q03HX024 (ip), vehicle: saline 93 % of control | endpoint: mean survival time, dose: 32.0 mg/kg/injection, schedule: Q01DX008 (ip), vehicle: saline 93 % of control | endpoint: mean survival time, dose: 32.0 mg/kg/injection, schedule: Q01DX008 (oral), vehicle: saline 100 % of control | endpoint: mean survival time, dose: 64.0 mg/kg/injection, schedule: Q01DX008 (ip), vehicle: saline 98 % of control | endpoint: mean survival time, dose: 64.0 mg/kg/injection, schedule: Q01DX008 (oral), vehicle: saline 98 % of control | [5] 100 % of control | endpoint: mean survival time, dose: 100.0 mg/kg/injection, schedule: Q04DX003 (ip), vehicle: saline 96 % of control | endpoint: mean survival time, dose: 128.0 mg/kg/injection, schedule: Q01DX001 (ip), vehicle: saline 120 % of control | endpoint: mean survival time, dose: 128.0 mg/kg/injection, schedule: Q01DX008 (ip), vehicle: saline 95 % of control | endpoint: mean survival time, dose: 128.0 mg/kg/injection, schedule: Q03HX024 (oral), vehicle: saline 110 % of control and 95 % of control | endpoint: mean survival time, dose: 128.0 mg/kg/injection, schedule: Q04DX003 (ip), vehicle: saline 98 % of control | endpoint: mean survival time, dose: 128.0 mg/kg/injection, schedule: Q04DX003 (oral), vehicle: saline 120 % of control and 100 % of control | [6] 93 % of control | endpoint: mean survival time, dose: 256.0 mg/kg/injection, schedule: Q01DX001 (ip), vehicle: saline 91 % of control | endpoint: mean survival time, dose: 256.0 mg/kg/injection, schedule: Q01DX001 (oral), vehicle: saline 98 % of control | endpoint: mean survival time, dose: 256.0 mg/kg/injection, schedule: Q01DX009 (ip), vehicle: saline 91 % of control | endpoint: mean survival time, dose: 256.0 mg/kg/injection, schedule: Q04DX003 (oral), vehicle: saline 98 % of control | endpoint: mean survival time, dose: 512.0 mg/kg/injection, schedule: Q01DX001 (ip), vehicle: saline 120 % of control and 97 % of control | endpoint: mean survival time, dose: 512.0 mg/kg/injection, schedule: Q01DX001 (oral), vehicle: saline 100 % of control | endpoint: mean survival time, dose: 512.0 mg/kg/injection, schedule: Q04DX003 (ip), vehicle: saline 96 % of control | endpoint: mean survival time, dose: 600.0 mg/kg/injection, schedule: Q04DX002 (ip), vehicle: saline 94 % of control | endpoint: mean survival time, dose: 1024.0 mg/kg/injection, schedule: Q01DX001 (ip), vehicle: saline 90 % of control | endpoint: mean survival time, dose: 1024.0 mg/kg/injection, schedule: Q01DX009 (ip), vehicle: saline 95 % of control | endpoint: mean survival time, dose: 1024.0 mg/kg/injection, schedule: Q01DX009 (oral), vehicle: saline 98 % of control | endpoint: mean survival time, dose: 1024.0 mg/kg/injection, schedule: Q04DX003 (oral), vehicle: saline 100 % of control | endpoint: mean survival time, dose: 1200.0 mg/kg/injection, schedule: Q04DX002 (ip), vehicle: saline 91 % of control | endpoint: mean survival time, dose: 2400.0 mg/kg/injection, schedule: Q04DX003 (ip), vehicle: saline 96 % of control

CSc1nccc2c1ncn2C1OC(CO)C(O)C1O (configuration not stated)
inactive: [9] 98 % of control | [10] 104 % of control | [11] 104 % of control
